Data set [1] can be described thus: Solubility in water (comparative data and examples). As to conditions: in 1 liter of water at 20-25° C. It counts as physicochemical.
The conditions of data set [2]: water at 20° C.; literature value (index Merck Ref. 1675; F.C.C. IV Ed. Page 153); cited from earlier work.

Molecules are shown by their SMILES.

Turning to `O=C([O-])[C@H](O)[C@@H](O)[C@H](O)[C@H](O)CO.O=C([O-])[C@H](O)[C@@H](O)[C@H](O)[C@H](O)CO.[Fe+2]` [Fe(II) gluconate], the “solubility, amount in 1 liter of water” value in data set [1] is reported as 85-100 gr. Besides, in data set [2], the solubility in water is listed as 100 gr/1000 ml.

Values taken from patent US20030049284A1, “Method of increasing the solubility of alphahydrocarboxilic salts, and products obtained by the method” (priority 2001, published 2003).
